Measurements taken from patent US20020051978A1, “Methods and compositions for the identification, assessment, prevention and therapy of human cancers” (priority 2000, published 2002).
“And” between values parts separate entries of the source, which are not always exact repeats. Equal values may be shown once. Read-outs that look alike come from different tables or passages of the source.

Test system: 60 cancer cell lines (NCI 60 cancer cell line series)
Assay: NCI-DTP in vitro cancer screen, sulforhodamine B (SRB) growth inhibition, 48 hour exposure
Format: cell-based, human
Description: Cancer Cell Line Preparation. Sixty cancer cell lines were obtained from the National Cancer Institute Developmental Therapeutics Program (NCI-DTP). Procedures for growing cells and testing compounds have been described previously (Scudiero et al., Cancer Res. 1988, 48:4827-4833; Stinson et al., Anticancer Res.; Myers et al., Electrophoresis 1997, 18:647-653). Cells are plated on day 0 at a density individualized for each cell line so that they will generally be sub-confluent at the end of the assay period. On day 1, a compound is added in the format for a duplicate-well, 5-dose, ten-fold interval dose response study.
No-drug, no-cell and no-growth controls are included. On day 3 the cells are processed for staining with sulforhodamine B (SRB), which reflects the amount of cell mass present at the end of a 48 hour exposure to the test agent. From dose response curves based on the SRB data, various parameters can be determined. The one used in the present study is the G15o, defined as the concentration of compound required to inhibit growth of the cell line by 50%. More precisely, the quantity used in the calculation to be described is the potency measure -log{GI50}.
Activity database (A). Table IA, consisting of the growth inhibition (GI5o) values for the 60 cell lines and 24 compounds, was created from the NCI-DTP in vitro cancer screen database. This subset of compounds was selected from the larger 23,000 compound database available from the DTP. The compounds were selected on the basis of their known mechanism of action and chemical structure. The average potency—log{GI50} was extracted from the comma-delimited text files available through the Web at http://www.nci.nih.gov/intra/lmp/jnwbio.htmrl. Subsequently, these log{GI5o} values were inspected manually and classified as indicating either Low, Medium or High sensitivity to each compound.

Carboplatin
classification of cell line as Low(1), Medium(2) or High(3) sensitivity to compound (Breast BT-549 (CL5013)): 2 | classification of cell line as Low(1), Medium(2) or High(3) sensitivity to compound (Breast HS-578T CL5006): 2 | classification of cell line as Low(1), Medium(2) or High(3) sensitivity to compound (Breast MCF7(I) (CL5001)): 2 | classification of cell line as Low(1), Medium(2) or High(3) sensitivity to compound (Breast MCF7/ADRr (CL5002)): 2 | classification of cell line as Low(1), Medium(2) or High(3) sensitivity to compound (Breast MDA-MB-231 CL5005): 1 | classification of cell line as Low(1), Medium(2) or High(3) sensitivity to compound (Breast MDA-MB-435 (CL5011)): 1 | classification of cell line as Low(1), Medium(2) or High(3) sensitivity to compound (Breast MDA-N CL5012): 2 | classification of cell line as Low(1), Medium(2) or High(3) sensitivity to compound (Breast T-47D (CL5014)): 1 | classification of cell line as Low(1), Medium(2) or High(3) sensitivity to compound (CNS SF-268 CL12014): 3 | classification of cell line as Low(1), Medium(2) or High(3) sensitivity to compound (CNS SF-295 CL12015): 3 | classification of cell line as Low(1), Medium(2) or High(3) sensitivity to compound (CNS SF-539 CL12016): 2 | classification of cell line as Low(1), Medium(2) or High(3) sensitivity to compound (CNS SNB-19 (CL12002)): 2 | classification of cell line as Low(1), Medium(2) or High(3) sensitivity to compound (CNS SNB-75(I) CL12005): 2 | classification of cell line as Low(1), Medium(2) or High(3) sensitivity to compound (CNS U251(I) CL12009): 2 | classification of cell line as Low(1), Medium(2) or High(3) sensitivity to compound (Colon COLO-250 CL4010): 1 | classification of cell line as Low(1), Medium(2) or High(3) sensitivity to compound (Colon HCC-2998 (CL4002)): 1 | classification of cell line as Low(1), Medium(2) or High(3) sensitivity to compound (Colon HCT-15 CL4015): 1 | classification of cell line as Low(1), Medium(2) or High(3) sensitivity to compound (Colon HCT-116 (CL4003)): 2 | classification of cell line as Low(1), Medium(2) or High(3) sensitivity to compound (Colon HT29(I) CL4001): 1 | classification of cell line as Low(1), Medium(2) or High(3) sensitivity to compound (Colon KM12 (CL4017)): 1 | classification of cell line as Low(1), Medium(2) or High(3) sensitivity to compound (Colon SW-620 (CL4009)): 2 | classification of cell line as Low(1), Medium(2) or High(3) sensitivity to compound (Leukemia CCRF-CEM(I) (CL7003)): 2 | classification of cell line as Low(1), Medium(2) or High(3) sensitivity to compound (Leukemia HL-60(I) (CL7008)): 3 | classification of cell line as Low(1), Medium(2) or High(3) sensitivity to compound (Leukemia K562(I) CL7005): 2 | classification of cell line as Low(1), Medium(2) or High(3) sensitivity to compound (Leukemia MOLT-4 (CL7006)): 2 | classification of cell line as Low(1), Medium(2) or High(3) sensitivity to compound (Leukemia RPMI-8226(I) (CL7010)): 2 | classification of cell line as Low(1), Medium(2) or High(3) sensitivity to compound (Leukemia SR CL7019): 2 | classification of cell line as Low(1), Medium(2) or High(3) sensitivity to compound (Melanoma LOX IMVI CL10001): 2 | classification of cell line as Low(1), Medium(2) or High(3) sensitivity to compound (Melanoma M14 (CL10014)): 2 | classification of cell line as Low(1), Medium(2) or High(3) sensitivity to compound (Melanoma MALME-3M CL10002): 2 | sensitivity class NSCLC NCI-H23(I) CL1001 (cell line NSCLC NCI-H23(I), CL1001): 3 | sensitivity class NSCLC NCI-H332M CL1017 (cell line NSCLC NCI-H332M, CL1017): 1 | sensitivity class NSCLC NCI-H460 CL1021 (cell line NSCLC NCI-H460, CL1021): 3 | sensitivity class NSCLC NCI-H522 CL1003 (cell line NSCLC NCI-H522, CL1003): 3 | sensitivity class Ovarian IGROV1 CL6010 (cell line Ovarian IGROV1, CL6010): 3 | sensitivity class Ovarian OVCAR-3 CL6001 (cell line Ovarian OVCAR-3, CL6001): 2 | sensitivity class Ovarian OVCAR-4 CL6002 (cell line Ovarian OVCAR-4, CL6002): 2 | sensitivity class Ovarian OVCAR-5 CL6003 (cell line Ovarian OVCAR-5, CL6003): 1 | sensitivity class Ovarian OVCAR-8 CL6005 (cell line Ovarian OVCAR-8, CL6005): 2 | sensitivity class Ovarian SK-OV-3 CL6011 (cell line Ovarian SK-OV-3, CL6011): 2 | sensitivity class Prostate DU-145 CL11003 (cell line Prostate DU-145, CL11003): 2 | sensitivity class Prostate PC-3(I) CL11001 (cell line Prostate PC-3(I), CL11001): 1 | sensitivity class Renal 786-O CL9018 (cell line Renal 786-O, CL9018): 2 | sensitivity class Renal A498 CL9013 (cell line Renal A498, CL9013): 1 | sensitivity class Renal ACHN CL9023 (cell line Renal ACHN, CL9023): 2 | sensitivity class Renal CAKI-1 CL9015 (cell line Renal CAKI-1, CL9015): 2 | sensitivity class Renal RXF-393 CL9016 (cell line Renal RXF-393, CL9016): 2 | sensitivity class Renal SN12C CL9008 (cell line Renal SN12C, CL9008): 2 | sensitivity class Renal TK10 CL9024 (cell line Renal TK10, CL9024): 1 | sensitivity class Renal UO-31 CL9004 (cell line Renal UO-31, CL9004): 2 | 3 # of High (number of the 60 cell lines classified High (3) sensitivity): 8 | 1 # of Low (number of the 60 cell lines classified Low (1) sensitivity): 14 | 2 # of Medium (number of the 60 cell lines classified Medium (2) sensitivity): 38

CC[C@]1(O)C[C@@H]2CN(CCc3c([nH]c4ccccc34)[C@@](C(=O)OC)(c3cc4c(cc3OC)N(C)[C@H]3[C@@](O)(C(=O)OC)[C@H](OC(C)=O)[C@]5(CC)C=CCN6CC[C@]43[C@@H]65)C2)C1.O=S(=O)(O)O [Vinbiastine sulfate]
classification of cell line as Low(1), Medium(2) or High(3) sensitivity to compound: 2 and 3 and 1

CC[C@]1(O)C[C@@H]2CN(CCc3c([nH]c4ccccc34)[C@@](C(=O)OC)(c3cc4c(cc3OC)N(C)[C@H]3[C@@](O)(C(=O)OC)[C@H](OC(C)=O)[C@]5(CC)C=CCN6CC[C@]43[C@@H]65)C2)C1 [Vinblastinesulfate]
classification of cell line as Low(1), Medium(2) or High(3) sensitivity to compound (Breast BT-549 (CL5013)): 3 | classification of cell line as Low(1), Medium(2) or High(3) sensitivity to compound (Breast HS-578T CL5006): 3 | classification of cell line as Low(1), Medium(2) or High(3) sensitivity to compound (Breast MCF7(I) (CL5001)): 3 | classification of cell line as Low(1), Medium(2) or High(3) sensitivity to compound (Breast MCF7/ADRr (CL5002)): 1 | classification of cell line as Low(1), Medium(2) or High(3) sensitivity to compound (Breast MDA-MB-231 CL5005): 2 | classification of cell line as Low(1), Medium(2) or High(3) sensitivity to compound (Breast MDA-MB-435 (CL5011)): 3 | classification of cell line as Low(1), Medium(2) or High(3) sensitivity to compound (Breast MDA-N CL5012): 3 | classification of cell line as Low(1), Medium(2) or High(3) sensitivity to compound (Breast T-47D (CL5014)): 3 | classification of cell line as Low(1), Medium(2) or High(3) sensitivity to compound (CNS SF-268 CL12014): 2 | classification of cell line as Low(1), Medium(2) or High(3) sensitivity to compound (CNS SF-295 CL12015): 2

CC(=O)O[C@H]1C(=O)[C@@]2(C)[C@H]([C@H](OC(=O)c3ccccc3)[C@]3(O)C[C@H](OC(=O)[C@H](O)[C@@H](NC(=O)c4ccccc4)c4ccccc4)C(C)=C1C3(C)C)[C@]1(OC(C)=O)CO[C@@H]1C[C@@H]2O [TAXOL, paclitaxel, reference compound]
classification of cell line as Low(1), Medium(2) or High(3) sensitivity to compound: 2 and 1 and 3 | sensitivity class NSCLC NCI-H23(I) CL1001: 2 | sensitivity class NSCLC NCI-H332M CL1017: 2 | sensitivity class Ovarian IGROV1 CL6010: 2 | sensitivity class Ovarian OVCAR-4 CL6002: 1 | sensitivity class Ovarian OVCAR-8 CL6005: 2 | sensitivity class Ovarian SK-OV-3 CL6011: 2 | sensitivity class Prostate DU-145 CL11003: 2 | sensitivity class Prostate PC-3(I) CL11001: 2 | sensitivity class Renal 786-O CL9018: 2 | sensitivity class Renal ACHN CL9023: 1 | sensitivity class Renal CAKI-1 CL9015: 1 | sensitivity class Renal RXF-393 CL9016: 2 | sensitivity class Renal SN12C CL9008: 2 | sensitivity class Renal UO-31 CL9004: 1 | sensitivity class of the cell line to the compound (1 Low, 2 Medium, 3 High): 1 and 3 and 2

COc1cccc2c1C(=O)c1c(O)c3c(c(O)c1C2=O)C[C@@](O)(C(=O)CO)C[C@@H]3O[C@H]1C[C@H](N)[C@H](O)[C@H](C)O1 [Adrlamycin]
classification of cell line as Low(1), Medium(2) or High(3) sensitivity to compound (Breast BT-549 (CL5013)): 2 | classification of cell line as Low(1), Medium(2) or High(3) sensitivity to compound (Breast HS-578T CL5006): 2 | classification of cell line as Low(1), Medium(2) or High(3) sensitivity to compound (Breast MCF7(I) (CL5001)): 3 | classification of cell line as Low(1), Medium(2) or High(3) sensitivity to compound (Breast MCF7/ADRr (CL5002)): 1 | classification of cell line as Low(1), Medium(2) or High(3) sensitivity to compound (Breast MDA-MB-231 CL5005): 2 | classification of cell line as Low(1), Medium(2) or High(3) sensitivity to compound (Breast MDA-MB-435 (CL5011)): 2 | classification of cell line as Low(1), Medium(2) or High(3) sensitivity to compound (Breast MDA-N CL5012): 2 | classification of cell line as Low(1), Medium(2) or High(3) sensitivity to compound (Breast T-47D (CL5014)): 2 | classification of cell line as Low(1), Medium(2) or High(3) sensitivity to compound (CNS SF-268 CL12014): 2 | classification of cell line as Low(1), Medium(2) or High(3) sensitivity to compound (CNS SF-295 CL12015): 2
